From ChEMBL document CHEMBL1255229, “Novel antimicrobial peptides that exhibit activity against select agents and other drug resistant bacteria” (2010) come the findings set out here.

What all share (format): functional
The test system of experiment [1] is Brucella suis. Briefly: Antimicrobial activity against Brucella suis ATCC 23445 after 24 hrs. To be noted: ATCC 23445, 24 h.
The test system of experiment [2] is Brucella abortus. Briefly: Antimicrobial activity against Brucella abortus 2308 after 24 hrs. To be noted: Brucella abortus, 2308, 24 h.
For experiment [3], the system named is Acinetobacter baumannii. Kind of experiment: Antimicrobial activity against Acinetobacter baumannii ATCC 19606 after 24 hrs. The settings on record: ATCC 19606 = CIP 70.34 = JCM 6841, 24 h.
Experiment [4] has as its system Brucella melitensis. Briefly: Antimicrobial activity against Brucella melitensis 16 M after 24 hrs.
In experiment [5] the test system is Burkholderia mallei. Kind of experiment: Antimicrobial activity against Burkholderia mallei ATCC 23444 after 24 hrs. The settings on record: ATCC 23444, 24 h.
Experiment [6] relates to Staphylococcus aureus. Kind of experiment: Antimicrobial activity against methicillin-resistant Staphylococcus aureus ATCC 33591 after 24 hrs. To be noted: ATCC 33591, 24 h.
Experiment [7] deals with Bacillus anthracis. Briefly: Antimicrobial activity against Bacillus anthracis Ames after 24 hrs.
In experiment [8] the test system is Yersinia pestis. Briefly: Antimicrobial activity against Yersinia pestis CO92 after 24 hrs. To be noted: CO92, 24 h.
For experiment [9], the system named is Francisella tularensis. Kind of experiment: Antimicrobial activity against Francisella tularensis SCHU-S4 after 24 hrs. To be noted: SCHU-S4, 24 h.
The test system of experiment [10] is Acinetobacter baumannii. Briefly: Antimicrobial activity against Acinetobacter baumannii WRAIR after 24 hrs.
The subject of experiment [11] is Burkholderia pseudomallei. Kind of experiment: Antimicrobial activity against Burkholderia pseudomallei BURK003(1026b) after 24 hrs.

In brackets after ≈: the same amount, converted by molar mass. Starred links: 1 amine or outer side, 2 acyl side, 3 side chain; linkers in the order of their positions; H or OH if unused. Non-standard residues stand in square brackets, D forms with d. Residues, ends and D or L forms follow the SMILES beside them. ξ: configuration not given here. Pro(3ξ,4ξ-(CH2)4) = O=C(O)[C@H]1NCC2CCCCC21; X1 = O=C([C@@H]1CN([*:1])C2CCCCC21)[*:2]; Tic = O=C(O)[C@@H]1Cc2ccccc2CN1; Ahx = NCCCCCC(=O)O; GABA = NCCCC(=O)O; βAla = NCCC(=O)O Where only a bound is given, the exact number is not on record here.

For `CC(=O)NCCCC(=O)N[C@@H](Cc1ccccc1)C(=O)N1Cc2ccccc2C[C@H]1C(=O)N1C[C@@H](C(=O)NCCCC(=O)N[C@@H](CCCCN)C(=O)N2Cc3ccccc3C[C@H]2C(=O)N2C[C@@H](C(=O)NCCCC(=O)N[C@@H](Cc3ccccc3)C(=O)N3Cc4ccccc4C[C@H]3C(=O)N3C[C@@H](C(=O)NCCCC(=O)N[C@@H](CCCCN)C(=O)N4Cc5ccccc5C[C@H]4C(=O)N[C@@H](CCCCN)C(=O)N[C@@H](CCCCN)C(=O)N[C@@H](CCCCN)C(=O)N[C@@H](CCCCN)C(=O)N[C@@H](CCCCN)C(N)=O)C4CCCCC43)C3CCCCC32)C2CCCCC21` (some centres undefined) (Ac-[GABA]F[Tic][X1][GABA]K[Tic][X1][GABA]F[Tic][X1][GABA]K[Tic]KKKKK-NH2), the MIC – broadly, the lowest concentration found to suppress growth – in experiment [1] was 93 µM (≈ 249 µg/mL); in [2] it was above 186 µM; in experiment [3], 5.8 µM (≈ 15.6 µg/mL); in experiment [4], 46.6 µM (≈ 125 µg/mL); in experiment [5], 186 µM (≈ 499 µg/mL); in [6], 46.6 µM (≈ 125 µg/mL). In addition, the minimum inhibitory concentration (MIC) is 0.71 µM (≈ 1.9 µg/mL) in experiment [7]; 46.6 µM (≈ 125 µg/mL) in experiment [8]; 186 µM (≈ 499 µg/mL) in experiment [9]; 2.9 µM (≈ 7.78 µg/mL) in experiment [10]; 186 µM (≈ 499 µg/mL) in experiment [11].
In the case of `CC(=O)NCCC(=O)N[C@@H](Cc1ccccc1)C(=O)N1Cc2ccccc2C[C@H]1C(=O)N1C[C@@H](C(=O)NCCC(=O)N[C@@H](CCCCN)C(=O)N2Cc3ccccc3C[C@H]2C(=O)N2C[C@@H](C(=O)NCCC(=O)N[C@@H](Cc3ccccc3)C(=O)N3Cc4ccccc4C[C@H]3C(=O)N3C[C@@H](C(=O)NCCC(=O)N[C@@H](CCCCN)C(=O)N[C@@H](CCCCN)C(=O)N[C@@H](CCCCN)C(=O)N[C@@H](CCCCN)C(=O)N[C@@H](CCCCN)C(N)=O)C4CCCCC43)C3CCCCC32)C2CCCCC21` (some centres undefined) (Ac-[βAla]F[Tic][X1][βAla]K[Tic][X1][βAla]F[Tic][X1][βAla]KKKKK-NH2), the MIC in experiment [1] turned out to be 200 µM (≈ 468 µg/mL); in experiment [2], 200 µM (≈ 468 µg/mL); in experiment [3], 1.5 µM (≈ 3.51 µg/mL); in [4], 200 µM (≈ 468 µg/mL); in experiment [5], 200 µM (≈ 468 µg/mL); in experiment [6], 200 µM (≈ 468 µg/mL). Also, the MIC in experiment [7] worked out at 25 µM (≈ 58.4 µg/mL); in experiment [8], 200 µM (≈ 468 µg/mL); in [9], 100 µM (≈ 234 µg/mL); in [10], 6.2 µM (≈ 14.5 µg/mL); in experiment [11], 200 µM (≈ 468 µg/mL).
Regarding `CC(=O)NCCCCCC(=O)N[C@@H](Cc1ccccc1)C(=O)N1Cc2ccccc2C[C@H]1C(=O)N1CC2CCCCC2[C@H]1C(=O)NCCCCCC(=O)N[C@@H](CCCCN)C(=O)N1Cc2ccccc2C[C@H]1C(=O)N1CC2CCCCC2[C@H]1C(=O)NCCCCCC(=O)N[C@@H](Cc1ccccc1)C(=O)N1Cc2ccccc2C[C@H]1C(=O)N1CC2CCCCC2[C@H]1C(=O)NCCCCCC(=O)N[C@@H](CCCCN)C(=O)N1Cc2ccccc2C[C@H]1C(=O)N[C@@H](CCCCN)C(=O)N[C@@H](CCCCN)C(=O)N[C@@H](CCCCN)C(=O)N[C@@H](CCCCN)C(N)=O` (some centres undefined) (Ac-[Ahx]F[Tic][Pro(3ξ,4ξ-(CH2)4)][Ahx]K[Tic][Pro(3ξ,4ξ-(CH2)4)][Ahx]F[Tic][Pro(3ξ,4ξ-(CH2)4)][Ahx]K[Tic]KKKK-NH2), the minimum inhibitory concentration (MIC) worked out at 47 µM (≈ 125 µg/mL) in experiment [1]; 12 µM (≈ 32 µg/mL) in experiment [2]; 5.9 µM (≈ 15.7 µg/mL) in experiment [3]; 93 µM (≈ 248 µg/mL) in experiment [4]; 187 µM (≈ 498 µg/mL) in [5]; 187 µM (≈ 498 µg/mL) in [6]. Moreover, the minimal inhibitory concentration (MIC) in experiment [7] is 1.5 µM (≈ 4 µg/mL); in experiment [8] it was 23.4 µM (≈ 62.4 µg/mL); in experiment [9], 23.4 µM (≈ 62.4 µg/mL); in [10] it was 2.9 µM (≈ 7.73 µg/mL); in experiment [11], 187 µM (≈ 498 µg/mL).
`CC(=O)N[C@@H](CCCCN)C(=O)N[C@@H](CCCCN)C(=O)N[C@@H](CCCCN)C(=O)N[C@@H](CCCCN)C(=O)NCC(=O)N[C@@H](Cc1ccccc1)C(=O)N1Cc2ccccc2C[C@H]1C(=O)N1C[C@@H](C(=O)NCC(=O)N[C@@H](CCCCN)C(=O)N2Cc3ccccc3C[C@H]2C(=O)N2C[C@@H](C(=O)NCC(=O)N[C@@H](Cc3ccccc3)C(=O)N3Cc4ccccc4C[C@H]3C(=O)N3C[C@@H](C(=O)NCC(=O)N[C@@H](CCCCN)C(=O)N4Cc5ccccc5C[C@H]4C(N)=O)C4CCCCC43)C3CCCCC32)C2CCCCC21` (some centres undefined) (Ac-KKKKGF[Tic][X1]GK[Tic][X1]GF[Tic][X1]GK[Tic]-NH2): the MIC in experiment [1] amounted to 25.6 µM (≈ 62.5 µg/mL); in experiment [2], 51 µM (≈ 124 µg/mL); in experiment [3] it was 12.8 µM (≈ 31.2 µg/mL); in [4], 51 µM (≈ 124 µg/mL); in [5], 204 µM (≈ 498 µg/mL); in experiment [6], 102 µM (≈ 249 µg/mL). Also, the MIC in experiment [7] amounted to 0.4 µM (≈ 0.976 µg/mL); in experiment [8], 13.1 µM (≈ 32 µg/mL); in [9], 51 µM (≈ 124 µg/mL); in experiment [10], 12.8 µM (≈ 31.2 µg/mL); in experiment [11] it was 204 µM (≈ 498 µg/mL).
